The values that follow are results of earlier work, collected in patent US20230235017A1, “A DRUG SCREENING PLATFORM FOR ENDOSOMAL ENHANCERS TO TREAT ALZHEIMER'S DISEASE” (Aarhus Universitet, priority 2020, published 2023).

The test system of this series is endosomal activity. The following applies: shown in the literature (Mecozzi 2014); cited from earlier work.

For `N=C(N)SCc1ccc(CSC(=N)N)s1` [R55], the “effect on endosomal activity” value is on record as “have an effect on endosomal activity”.
